Earlier results, collected in publication PMC6151383 (Molecules : A Journal of Synthetic Chemistry and Natural …, 2017).

System: Staphylococcus aureus, including a methicillin-resistant strain (MRSA), M. tuberculosis and Mycobacterium avium
Settings: range over S. aureus; cited from earlier work

In the case of `O=S(=O)(Nc1ncccn1)c1ccc(N=Cc2cc(Cl)ccc2O)cc1` [Compound 2c, 4-[(5-Chloro-2-hydroxybenzylidene)amino]-N-(pyrimidin-2-yl)benzenesulfonamide], the MIC values is listed as 125 to 250 µM.
